Target: T1, recombinant human SYK360-635 (Homo sapiens, UniProt P43405)
T1 construct: made in house
Assay: Determination of IC50 of Spleen Tyrosine Kinase (SYK) inhibition, 33P ATP filtration assay
Assay type: biochemical
Conditions: SYK aa 360-635 0.5 nM; ATP 20 μM, peptide 5 μM, 0.1% BSA; read-out: SYK_ENZYME_FILTRATION/v1, BSA

Row | IC50 [µM] | Compound
1 | 0.0231 | Cn1nc(-c2cnc3[nH]cc(C(=O)NC(C)(C)CO)c3n2)c2ccc(OC(F)(F)F)cc21 [Example I-371, 2-(1-Methyl-6-trifluoromethoxy-1H-indazol-3-yl)-5H-pyrrolo[2,3-b]pyrazine-7-carboxylic acid (2-hydroxy-1,1-dimethyl-ethyl)-amide]
2 | 0.00513 | Cc1cccc2c(-c3cnc4[nH]cc(C(=O)NC(C)(C)CO)c4n3)n[nH]c12 [Example I-372, 2-(7-Methyl-1H-indazol-3-yl)-5H-pyrrolo[2,3-b]pyrazine-7-carboxylic acid (2-hydroxy-1,1-dimethyl-ethyl)-amide]
3 | 0.019 | Cn1nc(-c2cnc3[nH]cc(C(=O)NC(C)(C)C)c3n2)c2cccnc21 [Example I-373, 2-(1-Methyl-1H-pyrazolo[3,4-b]pyridin-3-yl)-5H-pyrrolo[2,3-b]pyrazine-7-carboxylic acid tert-butylamide]
4 | 0.00765 | Cn1nc(-c2cnc3[nH]cc(C(=O)NC4(CO)CC4)c3n2)c2ccc(F)cc21 [Example I-374, 2-(6-Fluoro-1-methyl-1H-indazol-3-yl)-5H-pyrrolo[2,3-b]pyrazine-7-carboxylic acid (1-hydroxymethyl-cyclopropyl)-amide]
5 | 0.00282 | Cn1nc(-c2cnc3[nH]cc(C(=O)NC4(C)CCC4)c3n2)c2ccc(F)cc21 [Example I-376, 2-(6-Fluoro-1-methyl-1H-indazol-3-yl)-5H-pyrrolo[2,3-b]pyrazine-7-carboxylic acid (1-methyl-cyclobutyl)-amide]
6 | 0.145 | Cn1nc(-c2cnc3[nH]cc(C(=O)NC(C)(C)CN)c3n2)c2ccc(F)cc21 [Example I-379, 2-(6-Fluoro-1-methyl-1H-indazol-3-yl)-5H-pyrrolo[2,3-b]pyrazine-7-carboxylic acid (2-amino-1,1-dimethyl-ethyl)-amide]
7 | 0.00995 | C#CC(C)(C)NC(=O)c1c[nH]c2ncc(-c3nn(C)c4cc(F)ccc34)nc12 [Example I-380, 2-(6-Fluoro-1-methyl-1H-indazol-3-yl)-5H-pyrrolo[2,3-b]pyrazine-7-carboxylic acid (1,1-dimethyl-prop-2-ynyl)-amide]
8 | 0.716 | Cn1nc(-c2cnc3[nH]cc(C(=O)NC(C)(C)C(=O)OC(C)(C)C)c3n2)c2ccc(F)cc21 [Example I-381, 2-{[2-(6-Fluoro-1-methyl-1H-indazol-3-yl)-5H-pyrrolo[2,3-b]pyrazine-7-carbonyl]-amino}-2-methyl-propionic acid tert-butyl ester]
9 | 0.945 | Cn1nc(-c2cnc3[nH]cc(C(=O)NC(C)(C)C(=O)O)c3n2)c2ccc(F)cc21 [Example I-382, 2-{[2-(6-Fluoro-1-methyl-1H-indazol-3-yl)-5H-pyrrolo[2,3-b]pyrazine-7-carbonyl]-amino}-2-methyl-propionic acid]
10 | 0.00805 | Cn1nc(-c2cnc3[nH]cc(C(=O)NC(C)(CO)CO)c3n2)c2ccc(F)cc21 [Example I-383, 2-(6-Fluoro-1-methyl-1H-indazol-3-yl)-5H-pyrrolo[2,3-b]pyrazine-7-carboxylic acid (2-hydroxy-1-hydroxymethyl-1-methyl-ethyl)-amide]
11 | 0.00375 | Cn1nc(-c2cnc3[nH]cc(C(=O)NC4(C)CCCC4)c3n2)c2ccc(F)cc21 [Example I-384, 2-(6-Fluoro-1-methyl-1H-indazol-3-yl)-5H-pyrrolo[2,3-b]pyrazine-7-carboxylic acid (1-methyl-cyclopentyl)-amide]
12 | 0.104 | Cn1nc(-c2cnc3[nH]cc(C(=O)NC4(C)COC4)c3n2)c2ccc(F)cc21 [Example I-386, 2-(6-Fluoro-1-methyl-1H-indazol-3-yl)-5H-pyrrolo[2,3-b]pyrazine-7-carboxylic acid (3-methyl-oxetan-3-yl)-amide]
13 | 0.0317 | Cn1nc(-c2cnc3[nH]cc(C(=O)NC4(C#N)CC4)c3n2)c2ccc(F)cc21 [Example I-387, 2-(6-Fluoro-1-methyl-1H-indazol-3-yl)-5H-pyrrolo[2,3-b]pyrazine-7-carboxylic acid (1-cyano-cyclopropyl)-amide]
14 | 0.0638 | Cn1nc(-c2cnc3[nH]cc(C(=O)NC(C)(C)c4ccccc4)c3n2)c2ccc(Cl)cc21 [Example I-388, 2-(6-Chloro-1-methyl-1H-indazol-3-yl)-5H-pyrrolo[2,3-b]pyrazine-7-carboxylic acid (1-methyl-1-phenyl-ethyl)-amide]
15 | 0.183 | C[C@H](NC(=O)c1c[nH]c2ncc(-c3nn(C)c4cc(Cl)ccc34)nc12)c1ccccc1 [Example I-389, 2-(6-Chloro-1-methyl-1H-indazol-3-yl)-5H-pyrrolo[2,3-b]pyrazine-7 carboxylic acid ((S)-1-phenyl-ethyl)-amide]
16 | 0.0424 | Cn1nc(-c2cnc3[nH]cc(C(=O)NC(C)(C)C(F)(F)F)c3n2)c2ccc(Cl)cc21 [Example I-390, 2-(6-Chloro-1-methyl-1H-indazol-3-yl)-5H-pyrrolo[2,3-b]pyrazine-7-carboxylic acid (2,2,2-trifluoro-1,1-dimethyl-ethyl)-amide]
17 | 0.00868 | CCC(C)(C)NC(=O)c1c[nH]c2ncc(-c3nn(C)c4cc(Cl)ccc34)nc12 [Example I-391, 2-(6-Chloro-1-methyl-1H-indazol-3-yl)-5H-pyrrolo[2,3-b]pyrazine-7-carboxylic acid (1,1-dimethyl-propyl)-amide]

Row | IC50 [µM] | Compound
18 | 0.0102 | Cn1nc(-c2cnc3[nH]cc(C(=O)NC4(C)CCCCC4)c3n2)c2ccc(F)cc21 [Example I-392, 2-(6-Fluoro-1-methyl-1H-indazol-3-yl)-5H-pyrrolo[2,3-b]pyrazine-7-carboxylic acid (1-methyl-cyclohexyl)-amide]
19 | 0.492 | Cn1nc(-c2cnc3[nH]cc(C(=O)NC(C)(C)C(C)(C)N)c3n2)c2ccc(F)cc21 [Example I-393, 2-(6-Fluoro-1-methyl-1H-indazol-3-yl]-5H-pyrrolo[2,3-b]pyrazine-7-carboxylic acid (2-amino-1,1,2-trimethyl-propyl)-amide]
20 | 0.00438 | Cn1nc(-c2cnc3[nH]cc(C(=O)NC(C)(C)C)c3n2)c2ccc(C#N)cc21 [Example I-394, 2-(6-Cyano-1-methyl-1H-indazol-3-yl)-5H-pyrrolo[2,3-b]pyrazine-7-carboxylic acid tert-butylamide]
21 | 0.00228 | Cn1nc(-c2cnc3[nH]cc(C(=O)NC4(C)CC4)c3n2)c2ccc(Cl)cc21 [Example I-395, 2-(6-Chloro-1-methyl-1H-indazol-3-yl)-5H-pyrrolo[2,3-b]pyrazine-7-carboxylic acid (1-methyl-cyclopropyl)-amide]
22 | > 10 | Cn1nc(-c2cnc3[nH]cc(C(=O)Nc4ccccc4)c3n2)c2ccc(Cl)cc21 [Example I-396, 2-(6-Chloro-1-methyl-1H-indazol-3-yl)-5H-pyrrolo[2,3-b]pyrazine-7-carboxylic acid phenylamide]
23 | 0.219 | Cn1nc(-c2cnc3[nH]cc(C(=O)NC(C)(C)CN)c3n2)c2ccc(Cl)cc21 [Example I-397, 2-(6-Chloro-1-methyl-1H-indazol-3-yl)-5H-pyrrolo[2,3-b]pyrazine-7-carboxylic acid (2-amino-1,1-dimethyl-ethyl)-amide]
24 | 0.0122 | Cn1nc(-c2cnc3[nH]cc(C(=O)NC(C)(C)CO)c3n2)c2ccc(C#N)cc21 [Example I-398, 2-(6-Cyano-1-methyl-1H-indazol-3-yl)-5H-pyrrolo[2,3-b]pyrazine-7-carboxylic acid (2-hydroxy-1,1-dimethyl-ethyl)-amide]
25 | 0.00857 | Cn1nc(-c2cnc3[nH]cc(C(=O)NC(C)(C)CCO)c3n2)c2ccc(F)cc21 [Example I-400, 2-(6-Fluoro-1-methyl-1H-indazol-3-yl)-5H-pyrrolo[2,3-b]pyrazine-7-carboxylic acid (3-hydroxy-1,1-dimethyl-propyl)-amide]
26 | 0.0185 | Cn1nc(-c2cnc3[nH]cc(C(=O)NC(C)(C)C4CC4)c3n2)c2ccc(Cl)cc21 [Example I-401, 2-(6-Chloro-1-methyl-1H-indazol-3-yl)-5H-pyrrolo[2,3-b]pyrazine-7-carboxylic acid (1-cyclopropyl-1-methyl-ethyl)-amide]
27 | 0.101 | Cn1nc(-c2cnc3[nH]cc(C(=O)N[C@H]4CC[C@@H](N)CC4)c3n2)c2cc(OC(F)F)ccc21 [Example I-402, 2-(5-Difluoromethoxy-1-methyl-1H-indazol-3-yl)-5H-pyrrolo[2,3-b]pyrazine-7-carboxylic acid (cis-4-amino-cyclohexyl)-amide]
28 | 0.0136 | Cn1nc(-c2cnc3[nH]cc(C(=O)NC4CCCC(N)C4)c3n2)c2ccc(Cl)cc21 (stereo not drawn) [Example I-403, 2-(6-Chloro-1-methyl-1H-indazol-3-yl)-5H-pyrrolo[2,3-b]pyrazine-7-carboxylic acid (3-amino-cyclohexyl)-amide]
29 | > 10 | Cn1nc(-c2cnc3[nH]cc(C(=O)Nc4cccc(C#N)c4)c3n2)c2ccc(Cl)cc21 [Example I-404, 2-(6-Chloro-1-methyl-1H-indazol-3-yl)-5H-pyrrolo[2,3-b]pyrazine-7-carboxylic acid (3-cyano-phenyl)-amide]
30 | 0.186 | Cn1nc(-c2cnc3[nH]cc(C(=O)Nc4cccnc4)c3n2)c2ccc(Cl)cc21 [Example I-405, 2-(6-Chloro-1-methyl-1H-indazol-3-yl)-5H-pyrrolo[2,3-b]pyrazine-7-carboxylic acid pyridin-3-ylamide]
31 | 0.0873 | Cn1nc(-c2cnc3[nH]cc(C(=O)NC4(C)CCNC4)c3n2)c2ccc(F)cc21 (stereo not drawn) [Example I-406, 2-(6-Fluoro-1-methyl-1H-indazol-3-yl)-5H-pyrrolo[2,3-b]pyrazine-7-carboxylic acid (3-methyl-pyrrolidin-3-yl)-amide]
32 | 0.0058 | Cn1nc(-c2cnc3[nH]cc(C(=O)NC(C)(C)C#N)c3n2)c2ccc(Cl)cc21 [Example I-407, 2-(6-Chloro-1-methyl-1H-indazol-3-yl)-5H-pyrrolo[2,3-b]pyrazine-7-carboxylic acid (cyano-dimethyl-methyl)-amide]
33 | 0.0527 | Cn1nc(-c2cnc3[nH]cc(C(=O)NC(C)(C)CCCN)c3n2)c2ccc(F)cc21 [Example I-408, 2-(6-Fluoro-1-methyl-1H-indazol-3-yl)-5H-pyrrolo[2,3-b]pyrazine-7-carboxylic acid (4-amino-1,1-dimethyl-butyl)-amide]
